Experimental findings from US20260258397A1, “REAGENTS AND SYSTEMS FOR […]” (priority 2023, published 2026) are described below.

Several values for one entry are separate records, joined by “and”; a condition that tells them apart may be missing. Identical values can stand only once. Like-named read-outs stand apart in the source and are kept apart here.

One may read the EC50 as the concentration giving half of the maximal effect.

For one test, the target named is T1, PYR1^DIAZI (Arabidopsis thaliana, UniProt O49686, A160V/E8G/F108Y/F159G/L87M/M158V/V81Y).
T1 construct: expressed in transfected cells; host or cells: S. cerevisiae (2µ plasmid)
T1 sequence (O49686 1-191 E8G/V81Y/L87M/F108Y/M158V/F159G/A160V): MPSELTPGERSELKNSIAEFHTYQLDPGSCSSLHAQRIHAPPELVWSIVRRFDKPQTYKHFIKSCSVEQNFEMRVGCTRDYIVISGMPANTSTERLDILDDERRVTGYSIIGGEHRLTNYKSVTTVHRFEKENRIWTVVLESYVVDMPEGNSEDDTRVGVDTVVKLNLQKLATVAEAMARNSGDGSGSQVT
T1 sequence (Q9CAJ0 178-511 partner): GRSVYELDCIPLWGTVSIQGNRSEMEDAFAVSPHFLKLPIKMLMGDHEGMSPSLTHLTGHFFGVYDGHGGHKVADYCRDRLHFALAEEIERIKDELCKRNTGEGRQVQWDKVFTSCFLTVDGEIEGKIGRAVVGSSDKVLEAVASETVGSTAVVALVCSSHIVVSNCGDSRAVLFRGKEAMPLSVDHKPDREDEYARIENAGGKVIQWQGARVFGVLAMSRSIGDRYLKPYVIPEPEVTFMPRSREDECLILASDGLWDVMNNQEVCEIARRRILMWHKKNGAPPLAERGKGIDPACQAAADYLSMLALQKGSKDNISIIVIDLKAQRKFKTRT
Description: cell-based. The conditions noted are these: for Bottom: fit bottom of GFP fluorescence response; for Top: fit top of GFP fluorescence response. From the text: (§1) PYR1 variants were used to drive gene expression in an inducible genetic circuit by fusing a zinc finger DNA binding domain (Z4^32) to the N-terminus of PYR1, and the VP64 activation domain 33 to the N-terminus of ΔN-HAB1. The SV40 nuclear localization signal was also fused to the N-terminus of PYR1. A single 2u plasmid was used to express SV40-Z4DBD-PYR1 and VP64-HAB1, while the GFP expression cassette (Z44-CYCcore-GFP-CYC 1term) was integrated at the YPRCΔ15 site on chromosome XVI. GFP fluorescence induced by each circuit was measured 12 h after ligand addition to 1 mL cultures, 30° C. Fluorescence was measured by flow cytometry. Briefly, 50 μL of resuspended cells were transferred to a 96-well plate for analysis. The fluorescence intensity of each cell was measured using a BD Accuri C6 flow cytometer equipped with auto-loading. The forward scatter, side scatter, and GFP fluorescence (Ex/Em 488/533 nm) were recorded for a minimum of 10,000 events.
(§2) Transformed yeast cells were acquired by first inoculating 5 mL of liquid media and incubating in a shaker incubator overnight at 30° C. Cells from the overnight culture were then used to inoculate a 50 mL culture with an initial cell density of 5×10^6 cells/mL. This culture was grown at 30° C. with 200 rpm shaking until ~2×10^7 cells/mL were produced, approximately 3 to 5 hours. Cells were harvested by centrifugation at 4000 rpm for 5 min, washed with 25 mL sterile, deionized water, resuspended in 1 mL of 100 mM LiAc, and transferred to a 1.5 mL tube, producing a cell suspension with approximately 10^9 cells/mL. The cell suspension was briefly mixed by vortexing and 100 μL was transferred into a clean 1.5 mL tube for each transformation. Cells were pelleted at 13000 rpm for 15 sec and the supernatant was removed. A transformation mixture of 240 μL PEG (50% w/v), 36 μL 1.0 M LiAc, 50 μL salmon sperm DNA (2.0 mg/ml), plasmid, and sterile water were added to the cell pellet and mixed by vortexing for 1 min (total volume of 360 μL). The mixed transformation solution was then heat shocked at 42° C. for 40 min. Post heat-shock, cells were recovered by centrifugation at 8000 rpm for 30 sec. Cells resuspended in 400 μL sterile water were plated on appropriate selection media, in this case agar-SD media without uracil. Plates were incubated at 30° C. until mature colonies were formed.
(§3) Three single transformants were picked from selection plates, inoculated in 2 mL of SD-Ura containing 2% glucose in 14 mL culture tubes. After 24 hours of growth at 30° C. in a shaker incubator (200 rpm), the OD600 of each sample was measured and cultures were back diluted to OD600=0.2 in fresh SD-Ura, the total volume of diluted culture was 9 mL. Each 9 mL culture was separated into 8 unique cultures by transferring 1 mL into 8 different wells of a 96 deep-well plate. Each well was used to evaluate the effect of a specific concentration of ligand. After all the cultures were transferred, 1 μL of stock ligand solution (each stock varying in concentration) was added to each well. The plate was sealed with an air-breathable polymer film and cultured with 1000 rpm shaking at 30° C. for 12 hours. Shaker humidity was maintained at 90%. Cells were harvested by centrifuge at 5000 g for 10 min, and after discarding the supernatant, the cells were suspended in 1 mL PBS buffer and centrifuged at 5000 g for 10 min. The cells were washed with 1 mL PBS buffer twice and resuspended in 1 mL DI water for flow cytometry analysis. For flow cytometry analysis, 50 μL of resuspended cells were transferred to a 96-well plate with flat bottom, adding DI water up to final volume 200 μL. The fluorescence intensity of cells within each sample was measured using a BD Accuri C6 flow cytometer equipped with auto-loading from 96 well plates. The forward scatter, side scatter, and GFP fluorescence (Ex/Em 488/533 nm) were recorded for a minimum of 10,000 events.

In a further test the target is T2, PYR1^PIRI (Arabidopsis thaliana, UniProt O49686, A160T/E130G/F159T/K59R/N119S/S122Q/S92M/V174A).
T2 construct: expressed in transfected cells; host or cells: S. cerevisiae (2µ plasmid)
T2 sequence (O49686 1-191 K59R/S92M/N119S/S122Q/E130G/F159T/A160T/V174A): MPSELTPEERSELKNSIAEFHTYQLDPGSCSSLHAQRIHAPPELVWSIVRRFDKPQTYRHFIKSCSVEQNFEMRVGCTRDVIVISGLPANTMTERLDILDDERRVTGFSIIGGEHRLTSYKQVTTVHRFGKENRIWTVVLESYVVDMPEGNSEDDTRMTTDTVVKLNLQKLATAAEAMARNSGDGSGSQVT
T2 sequence (Q9CAJ0 178-511 partner): T1 sequence (Q9CAJ0 178-511 partner)
Description: cell-based. To be noted: for Bottom: fit bottom of GFP fluorescence response; for Top: fit top of GFP fluorescence response.
Source text: as §1, §2, §3

In test [1] the test system is PYR1 mutant receptors (ligand-dependent binding to HAB1). The test is described as follows: Yeast two-hybrid screens and optimization for organophosphate sensors. In kind it is cell-based, Arabidopsis. To be noted: after four rounds of recombination-based mutagenesis (PYR1^DIAZI, PYR1^PIRI). As to the method: Surviving cells were collected and used in subsequent positive selections for ligand-responsive receptors on SD,-Leu,-Trp,-Ura media supplemented with a specific test chemical (100 μM) for responsiveness to any of the 10-member panel of organophosphate compounds: diazinon, pirimiphos-methyl, azinphos-ethyl, dimethoate, chlorfenvinphos, disulfoton, parathion-methyl, bromophos-methyl, malathion, and monocrotophos; all compounds were purchased form (Sigma-Aldrich). Isolated colonies were tested by regrowth on ligand-containing media and by dose response using X-gal staining and Sanger sequenced (see FIG. 13a-d).
Recombination-based mutagenesis of hit receptors was used to generate subsequent molecular diversity for selection-based optimization experiments, using the same general strategy across all scaffolds utilized. […] The resulting shuffled DNA fragments were cloned into pBD, transformed into E. coli, colonies collected, and plasmids extracted.

A further test deals with T3, PYR1^4F-M (Arabidopsis thaliana, UniProt O49686, A160G/F159V/H115Q/H60P/N90S/Y120G).
T3 construct: made in house; host or cells: E. coli
Description: PYR1 ELISA-like plate assay, immobilized PYR1^4F-M with biotinylated ΔN-HAB1^T+. To be noted: PYR1^4F-M ELISA-like format. Type of test: binding. As to the method:
PYR1 was immobilized overnight in clear plates, blocked with KPL milk diluent in buffer CBS ^17 (CBSM). All binding reactions were performed using CBSM. Detection was performed via binding a streptavidin-HRP conjugate to biotinylated ΔN-HAB1^T+ followed by incubation with a commercial TMB reagent. Lower limits of detection (LODs) were determined by linear regression of the response data in the low linear range using the formula LOD=3σy/m, where m is the slope of the response line and σy is the standard error of the y intercept using data combined from biological replicates.
Unconjugated 6×His-MBP-PYR1 variants were immobilized to Microlon clear plates (655081) using 100 μL of CBS without pH modification, at a protein concentration of 100 μg mL^−1, or 1.57 AM at 4° C. overnight. Wells assigned as no PYR controls received only CBS. Plates were sealed using Microseal B adhesive sealers (BioRad MSB-1001). […] The pellet was stored on ice until the blocked and washed plates were ready to receive the binding reactions. ΔN-HAB1^T+ was exchanged into CBSM with 1 mM DTT and 1 mM TCEP (CBSM++) using Zeba™ spin desalting columns (Thermo) were equilibrated with CBSM++. ΔN-HAB1^T+ was diluted to 10× the final binding reaction concentration and was immediately added to the pre-assembled assays in PCR plates, which were mixed by pipetting and transferred to the washed, blocked Microlon plates. […]
(ELISA stands for enzyme-linked immunosorbent assay.)

A further test concerns HAB1. Description: Y2H X-gal staining of evolved sensors: ligand responsiveness and cross reaction. In kind it is cell-based, Arabidopsis. To be noted: ligands WIN 55,212-2, 4F-MDMB-BUTINACA, AB-PINACA, JWH-072; PYR1^JWH-072 to low μM WIN 55,212-2, PYR1^4F to low μM AB-PINACA. As for the experimental part: High-affinity sensors were tested for cross reaction using both Y2H and in vitro PP2C assays. […] Similar methods were used to characterize PYR1^PIRI and PYR1^WIN sensor selectivity and sensitivity.
The PYL2 coding sequence cloned in the Y2H pBD vector was used as template to incorporate the corresponding PYR1^WIN and PYR1^4F homologous residues via site directed mutagenesis using the QuikChange Lightning Multi Site-Directed mutagenesis kit (Agilent Technologies). Resulting clones PYL2^WIN (K64Q, F165A, V1661) and PYL2^4F (H119Q, Y124G, F165V, V166G) were sequence confirmed and incorporated into MAV99 harboring pACT-HAB1 and tested for ligand activation using uracil-independent growth and X-gal staining experiments. The same method was used to generate a PYL2^WIN version in a protein expression vector for crystallization studies.

T3 sequence (O49686 whole entry H60P/N90S/H115Q/Y120G/F159V/A160G, other chains not shown): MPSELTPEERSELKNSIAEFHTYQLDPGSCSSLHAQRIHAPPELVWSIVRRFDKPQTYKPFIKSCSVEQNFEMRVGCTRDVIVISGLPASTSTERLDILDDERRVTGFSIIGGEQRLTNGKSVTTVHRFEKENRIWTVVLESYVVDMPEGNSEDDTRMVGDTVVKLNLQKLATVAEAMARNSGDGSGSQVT

Regarding `CCN(CC)c1nc(C)cc(OP(=S)(OC)OC)n1` [Pirimiphos, pirimiphos-methyl], the half-maximal effective concentration (EC50) at PYR1^DIAZI turned out to be 17400 nM; at PYR1^PIRI it was 20 nM. Further, the results for the Bottom on PYR1^DIAZI (PYR1-DIAZI) and on PYR1^PIRI (PYR1-PIRI) were 14673 and 12745, respectively. Besides, the Top was 88148 on PYR1^DIAZI (PYR1-DIAZI) and 105951 at PYR1^PIRI (PYR1-PIRI). In test [1], the “ligand concentration to which optimized sensors respond” value was determined as 10 nM.
Turning to `COC(=O)[C@@H](NC(=O)c1nn(CCCCF)c2ccccc12)C(C)(C)C` [4F-MDMB, 4F-MDMB-BUTINACA], the “average LOD from two biological replicates” value on PYR1^4F-M was 6 nM and 2.2 ng/ml.
For the molecule “PYR1^JWH-072: PYR1 variant sensor for JWH-072; cannabinoid receptor sequence (MPSGLTPEERSELKNSIAEFHTYQLDPGSCSSLHAQRIHAPPELVWSIVRRFDKPQTYN)”, the “cross-reactivity to off-target cannabinoid ligands” value with HAB1 was “modest cross-reactivity”.
As for `CCOP(=S)(OCC)Oc1cc(C)nc(C(C)C)n1` [Diazinon, diazinon], the Bottom was 17196 at PYR1^DIAZI (PYR1-DIAZI) and 19123 at PYR1^PIRI (PYR1-PIRI). In addition, the values for the Top on PYR1^DIAZI (PYR1-DIAZI) and at PYR1^PIRI (PYR1-PIRI) were 103999 and 109997, respectively. For the same molecule, the EC50 on PYR1^DIAZI (PYR1-DIAZI, no unit in table (text b82 gives the same values in nM), read-out: EC50) was determined as 43.1 nM; on PYR1^DIAZI (PYR1^DIAZI, yeast-transcription circuit, read-out: EC50) it was 43 nM; on PYR1^PIRI (PYR1-PIRI, no unit in table (text b82 gives the same values in nM/μM), read-out: EC50) it was 1010 nM; at PYR1^PIRI (PYR1^PIRI, yeast-transcription circuit, strongest off-target response, read-out: EC50), 1000 nM. Further, the “EC50 to diazinon lower than all other molecules profiled” value on PYR1^DIAZI (PYR1^DIAZI, selectivity versus panel of chemically similar organophosphates) was “greater than 10 fold”. The “EC50 higher than that with pirimiphos” value at PYR1^PIRI (PYR1^PIRI, off-target diazinon versus pirimiphos) was found to be 50 fold. Further, the “ligand concentration to which optimized sensors respond” value in test [1] was found to be 10 nM.
